Results: US20230003718A1, “METHODS FOR ASSESSING RATES OF DNA REPAIR” (The Johns Hopkins University, priority 2021, published 2023)
Entries after “also recorded” stand apart in the source; their conditions may differ. Read-outs that look alike come from different tables or passages of the source.

Columns and labels:
Type in all cases: cell-based
[1] = tested on: homologous recombination (HR) repair of Cas9 DSB in HEK293FT cells; test: RepairSwitch assay, rate of HR (EGFP to BFP switch, flow cytometry); settings: for IC50: RepairSwitch, 1 week after transfection, read-out: IC50 for inhibition of HR rate; for Effect on rate of HR: dose range 1 nm to 10 uM
Experimental: (§1) All cell lines were plated in 12-well plates at 2.5E5 cells/well in their respective growth mediums. The growth medium was then replaced after 24-48 hours and the cells were transfected with lug of CRISPR/Cas9 gRNA construct, lug of HR repair template, or both gRNA and HR repair template (2 ug total) in combination using FuGENE HD (Promega) at a FuGENE to DNA ratio of 3:1. The DNA was mixed with Opti-MEM (50 ul Opti-MEM/ug DNA) and FuGENE was added for an incubation period of 15 minutes before being added dropwise to the well. If drug is being utilized, cells are dosed immediately prior to transfection. Fresh growth medium was replaced every 48-72 hours. Cells were kept in culture for 1 week before assessment of fluorescence via flow cytometry.
(§2) All drugs were dissolved in DMSO as per Selleck instructions. For cell-based work drugs were diluted to a final concentration of 0.001% DMSO. All drugs were given in a dose range of 1 nm to 10 uM, unless toxicity was shown in Incucyte proliferation assays (S1, S2).
(§3) Medium was removed from 12-well plates and cells were detached from plate using TrypLE Express. FBS containing medium was used to neutralize TrypLE Express and cells were collected and spun down at 1000 RPM for 5 min. Cell pellets were then washed with PBS twice before resuspension in 500 ul PBS and put on ice. Prior to flow of each sample, cells were resuspended and put through a cell-strainer cap on the flow tube. Cells were gated to ensure single cell population as well as high DsRed expression. For each sample, 10,000-30,000 high DsRed expressing cells were counted depending on sample concentration, and assessed for both EGFP and BFP expression. FlowJo was utilized to analyze all flow cytometry results and to produce statistics on each population.
Graphpad Prism was utilized to visualize statistical results from FlowJo. Additionally, it was utilized to provide statistical analyses of p value using unpaired t-tests.
The RepairSwitch assay was developed to measure the balance of HR- and NHEJ-mediated double-strand break (DSB) repair. To accomplish this, it was necessary to design assay vectors that could be lenti-virally transduced into cells and would thereby be incorporated into the genome. […] Additionally, it allowed DsRed to serve as a transduction control to ensure vector integration at an MOI of 0.3, while EGFP served as a target for CRISPR/Cas9 induced DSB. […] Additionally, in conjunction with the administration of the CRISPR/Cas9 EGFP gRNA, exogenous single stranded DNA oligos were administered in excess and act as the repair template. In this system, the resulting fluorescence, post CRISPR/Cas9 cutting at the target locus, is dependent on the method of repair. Upon utilization of the repair template in repair via homologous recombination (HR) the resulting locus will be converted from EGFP to BFP. This is possible due to the sequence similarity of these fluorescent proteins, which differ in only two bases, resulting in the substitution of two adjacent amino acids. […] Either, the EGFP fluorescence will be extinguished due to the error prone repair, or it is possible for the EGFP protein to be repaired correctly or with a silent mutation via NHEJ, thereby producing a viable fluorescent signal. […] A schematic of the RepairSwitch assay readout (FIG. 1B) provides a concise overview of the possible fluorescent outcomes and their respective implications.

[2] = tested on: homologous recombination (HR) repair of Cas9 DSB in HCT116 cells; test: cells; settings: for Effect on rate of HR: HCT116 cells
Experimental: (§4) All cell lines were plated in 12-well plates at 2.5E5 cells/well in their respective growth mediums. […]. The DNA was mixed with Opti-MEM (50 ul Opti-MEM/ug DNA) and FuGENE was added for an incubation period of 15 minutes before being added dropwise to the well. If drug is being utilized, cells are dosed immediately prior to transfection. Fresh growth medium was replaced every 48-72 hours. Cells were kept in culture for 1 week before assessment of fluorescence via flow cytometry.
(§5) All compounds used can be found listed in Table 1, and all were purchased from Selleck. All drugs were dissolved in DMSO as per Selleck instructions. […].
as §3
Graphpad Prism was utilized to visualize statistical results from FlowJo. […]
(§6) The RepairSwitch assay was developed to measure the balance of HR- and NHEJ-mediated double-strand break (DSB) repair. […] In this system, the resulting fluorescence, post CRISPR/Cas9 cutting at the target locus, is dependent on the method of repair. […] Either, the EGFP fluorescence will be extinguished due to the error prone repair, or it is possible for the EGFP protein to be repaired correctly or with a silent mutation via NHEJ, thereby producing a viable fluorescent signal. […] A schematic of the RepairSwitch assay readout (FIG. 1B) provides a concise overview of the possible fluorescent outcomes and their respective implications.

[3] = tested on: non-homologous end joining (NHEJ) repair of Cas9 DSB in HEK293FT cells; test: RepairSwitch assay, rate of NHEJ (loss of EGFP, flow cytometry); settings: dose range 1 nm to 10 uM
Experimental: as §1, §2
Medium was removed from 12-well plates and cells were detached from plate using TrypLE Express. FBS containing medium was used to neutralize TrypLE Express and cells were collected and spun down at 1000 RPM for 5 min. […] For each sample, 10,000-30,000 high DsRed expressing cells were counted depending on sample concentration, and assessed for both EGFP and BFP expression. […]
as §6

[4] = tested on: non-homologous end joining (NHEJ) repair of Cas9 DSB in HCT116 cells; test: as above
Experimental: as §4, §5
Medium was removed from 12-well plates and cells were detached from plate using TrypLE Express. […] For each sample, 10,000-30,000 high DsRed expressing cells were counted depending on sample concentration, and assessed for both EGFP and BFP expression. […]
The RepairSwitch assay was developed to measure the balance of HR- and NHEJ-mediated double-strand break (DSB) repair. […] In this system, the resulting fluorescence, post CRISPR/Cas9 cutting at the target locus, is dependent on the method of repair. […] Either, the EGFP fluorescence will be extinguished due to the error prone repair, or it is possible for the EGFP protein to be repaired correctly or with a silent mutation via NHEJ, thereby producing a viable fluorescent signal. […]

Compound	IC50 ([1]; 168 h) [nM]	Effect on rate of HR [1]	Effect on rate of HR ([1]; listed as decitabine)	Effect on rate of HR [2]	Effect on rate of HR ([2]; listed as decitabine)	IC50 ([2]; Homo sapiens, HCT-116, read-out: IC50 for inhibition of HR rate) [nM]	Effect on rate of NHEJ [3]	Effect on rate of NHEJ ([3]; listed as decitabine)	Effect on rate of NHEJ [4]	Effect on rate of NHEJ ([4]; listed as decitabine)	IC50 [1] [nM]
Nc1ncn([C@H]2C[C@H](O)[C@@H](CO)O2)c(=O)n1 [Decitabine]	187	dose responsive decrease in the rates of HR	reduced HR	also consistent in HCT116 cells	reduced HR	1400	compensatory increase in the rates of NHEJ	increased rates of NHEJ	also consistent in HCT116 cells	increased rates of NHEJ	
Olaparib		lower potency in modulating HR and NHEJ; also recorded: subtle reduction in rates of HR					lower potency in modulating HR and NHEJ; also recorded: subtle increase in the rates of NHEJ				739
